Source: ChEMBL document CHEMBL1201862, “PubChem BioAssay data set” (2004)
Values joined by “and” are separate entries in the source; they are usually repeats but may differ in a detail not shown here. Identical values can stand only once.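 Tested at 5 concentrations; 48 h exposure; 96-well plates; endpoints linearly interpolated, else capped at highest concentration. Here, GI50 denotes the concentration required for 50% inhibition of growth.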 Active and inactive are the calls of the source. No stated cut-off is given here; in the data, active = GI50 up to about 1.1 µM and inactive = higher.

Key:
Experiment in all cases: inhibition of tumour cell growth, NCI panel, 48 h
UACC-257 = test system: UACC-257
NCI-H460 = test system: NCI-H460
EKVX = test system: EKVX
HCT-116 = test system: HCT-116
MDA-MB-435 = test system: MDA-MB-435
SK-MEL-2 = test system: SK-MEL-2
DU-145 = test system: DU-145
SF-539 = test system: SF-539
NCI/ADR-RES = test system: NCI/ADR-RES
CCRF-CEM = test system: CCRF-CEM
SK-OV-3 = test system: SK-OV-3
Hs-578T = test system: Hs-578T
SK-MEL-5 = test system: SK-MEL-5
OVCAR-3 = test system: OVCAR-3
HCT-15 = test system: HCT-15
A549 = test system: A549
HT-29 = test system: HT-29
RPMI-8226 = test system: RPMI-8226
A498 = test system: A498

| Structure (SMILES) | GI50 (UACC-257) | GI50 (NCI-H460) | GI50 (EKVX) | GI50 (HCT-116) | GI50 (MDA-MB-435) | GI50 (SK-MEL-2) | GI50 (DU-145) | GI50 (SF-539) | GI50 (NCI/ADR-RES) | GI50 (CCRF-CEM) | GI50 (SK-OV-3) | GI50 (Hs-578T) | GI50 (SK-MEL-5) | GI50 (OVCAR-3) | GI50 (HCT-15) | GI50 (A549) | GI50 (HT-29) | GI50 (RPMI-8226) | GI50 (A498) |
| --- | --- | --- | --- | --- | --- | --- | --- | --- | --- | --- | --- | --- | --- | --- | --- | --- | --- | --- | --- |
| CCNC(=O)CCC(C)[C@H]1CCC2C3C(C[C@H](OC(C)=O)[C@@]21C)[C@@]1(C)CCC2(C[C@H]1C[C@H]3OC(C)=O)OOC1(CCC(C)CC1)OO2 (stereo not given in full) | 4.63 µM (inactive) and 2.62 µM (inactive) | 2.39 µM (inactive) and 1.75 µM (inactive) | 1.39 µM (inactive) and 1.3 µM (inactive) | 1.94 µM (inactive) and 1.79 µM (inactive) | 1.79 µM (inactive) and 1.72 µM (inactive) | 1.58 µM (inactive) and 1.61 µM (inactive) | 1.73 µM (inactive) and 2.37 µM (inactive) | 1.97 µM (inactive) and 2.75 µM (inactive) | 3.31 µM (inactive) and 1.73 µM (inactive) | 710 nM (active) and 1.24 µM (inactive) | 4.02 µM (inactive) and 2.54 µM (inactive) | 2.62 µM (inactive) and 2.68 µM (inactive) | 1.67 µM (inactive) and 1.61 µM (inactive) | 1.55 µM (inactive) and 1.59 µM (inactive) | 1.99 µM and 2 µM | 1.5 µM (inactive) and 1.49 µM (inactive) | – | – | – |
| CC(=O)CCC(=O)C(=[N+]=[N-])S(=O)(=O)c1ccccc1 | > 100 µM (inactive) | > 100 µM (inactive) | > 100 µM (inactive) | > 100 µM (inactive) | > 100 µM (inactive) | > 100 µM (inactive) | > 100 µM (inactive) | > 100 µM (inactive) | > 100 µM (inactive) | > 100 µM (inactive) | – | > 100 µM (inactive) | > 100 µM (inactive) | > 100 µM (inactive) | > 100 µM | > 100 µM (inactive) | > 100 µM (inactive) | > 100 µM (inactive) | – |
| S=C(Nc1ccccn1)Nc1ccccc1Cl | > 72.9 µM (inactive) | 71 µM (inactive) | 8.51 µM (inactive) | > 71.9 µM (inactive) | 69.5 µM (inactive) | > 100 µM (inactive) | > 100 µM (inactive) | 55.3 µM (inactive) | > 67.5 µM (inactive) | > 100 µM (inactive) | > 66.1 µM (inactive) | – | 42.4 µM (inactive) | > 67.1 µM (inactive) | 59.8 µM | 50.8 µM (inactive) | > 61.1 µM (inactive) | > 100 µM (inactive) | > 84.3 µM (inactive) |
| CC(C)C1C(=O)N2CCCC2C2(O)OC(NC(=O)C3C=C4c5cccc6[nH]cc(c56)CC4N(C)C3)(C(C)C)C(=O)N12 (stereo not given) | 28.7 µM (inactive) | 19 µM (inactive) | 19.5 µM (inactive) | 17.9 µM (inactive) | 29.2 µM (inactive) | 17.7 µM (inactive) | 35.4 µM (inactive) | 19.8 µM (inactive) | 21.1 µM (inactive) | 24.7 µM (inactive) | – | 22.5 µM (inactive) | 20.6 µM (inactive) | 17.9 µM (inactive) | 20.5 µM | 20.7 µM (inactive) | 18 µM (inactive) | 16.2 µM (inactive) | – |
| CN(Cc1cnc2nc(N)nc(N)c2n1)c1ccc(C(=O)NC(CCS(=O)(=O)O)C(=O)O)cc1 (stereo not given) | > 100 µM (inactive) | 0.409 µM (active) | 1.31 µM (inactive) | 0.0745 µM (active) | 0.426 µM (active) | > 100 µM (inactive) | – | 0.824 µM (active) | 2.31 µM (inactive) | 0.0312 µM (active) | > 100 µM (inactive) | > 100 µM (inactive) | 1.79 µM (inactive) | 3.46 µM (inactive) | 0.25 µM | 0.421 µM (active) | 4.02 µM (inactive) | – | > 100 µM (inactive) |
| CCOC(=O)C(NC(=O)c1cccc(Cl)c1)(N1CCN(c2cc3c(cc2F)c(=O)c(C(=O)O)cn3C2CC2)CC1)C(F)(F)F (stereo not given) | – | 16.7 µM (inactive) | 18.6 µM (inactive) | 12.7 µM (inactive) | 14.2 µM (inactive) | 14.7 µM (inactive) | 25.4 µM (inactive) | 16.7 µM (inactive) | – | 2.67 µM (inactive) | 23.4 µM (inactive) | 20.7 µM (inactive) | 12.9 µM (inactive) | 10.7 µM (inactive) | – | 15.2 µM (inactive) | – | 3.94 µM (inactive) | 20 µM (inactive) |
| O=C(O)COc1cc(-c2ccccc2F)nc2cc3c(cc12)OCO3 | > 100 µM (inactive) | – | > 100 µM (inactive) | > 100 µM (inactive) | > 100 µM (inactive) | > 100 µM (inactive) | > 100 µM (inactive) | > 100 µM (inactive) | > 100 µM (inactive) | > 100 µM (inactive) | > 100 µM (inactive) | – | > 100 µM (inactive) | > 100 µM (inactive) | > 100 µM | > 100 µM (inactive) | > 100 µM (inactive) | > 100 µM (inactive) | – |
| O=c1c(/C=C/c2c(O)ccc3ccccc23)nnc2sc(-c3cccc([N+](=O)[O-])c3)nn12 | 13.2 µM (inactive) | – | 18.7 µM (inactive) | 4.98 µM (inactive) | 17.1 µM (inactive) | 5.57 µM (inactive) | 8.38 µM (inactive) | – | 12.3 µM (inactive) | – | 30 µM (inactive) | 12.5 µM (inactive) | – | 2.73 µM (inactive) | 4.43 µM | – | 36.4 µM (inactive) | 14.6 µM (inactive) | – |
| Cc1c2c(n(CCc3ccccc3)c1C)NN=C(C#N)S2(=O)=O | > 100 µM (inactive) | > 100 µM (inactive) | > 100 µM (inactive) | > 100 µM (inactive) | > 100 µM (inactive) | > 100 µM (inactive) | > 100 µM (inactive) | > 100 µM (inactive) | > 100 µM (inactive) | – | > 100 µM (inactive) | > 100 µM (inactive) | > 100 µM (inactive) | > 100 µM (inactive) | > 100 µM | > 100 µM (inactive) | > 100 µM (inactive) | > 100 µM (inactive) | – |
| N#Cc1c(O)c(/C=N/c2ncccn2)c(=O)n2c1[nH]c1ccccc12 | > 100 µM (inactive) | > 100 µM (inactive) | > 100 µM (inactive) | > 100 µM (inactive) | > 100 µM (inactive) | > 100 µM (inactive) | – | > 100 µM (inactive) | > 100 µM (inactive) | > 100 µM (inactive) | > 100 µM (inactive) | > 100 µM (inactive) | > 100 µM (inactive) | > 100 µM (inactive) | > 100 µM | > 100 µM (inactive) | > 100 µM (inactive) | > 100 µM (inactive) | > 100 µM (inactive) |
| CCC(=O)Nc1nc2c(ncn2C2OC(COC(=O)CC)C(OC(=O)CC)C2OC(=O)CC)c(=O)[nH]1 (stereo not given) | > 100 µM (inactive) | > 100 µM (inactive) | > 100 µM (inactive) | > 100 µM (inactive) | – | > 100 µM (inactive) | – | > 100 µM (inactive) | – | – | > 100 µM (inactive) | – | > 100 µM (inactive) | > 100 µM (inactive) | > 100 µM | > 100 µM (inactive) | > 100 µM (inactive) | > 100 µM (inactive) | > 100 µM (inactive) |
| N#CCCC1(CCC#N)CCc2ccccc2C1=O | > 100 µM (inactive) | > 100 µM (inactive) | > 100 µM (inactive) | > 100 µM (inactive) | > 100 µM (inactive) | > 100 µM (inactive) | > 100 µM (inactive) | > 100 µM (inactive) | > 100 µM (inactive) | > 100 µM (inactive) | > 100 µM (inactive) | – | > 100 µM (inactive) | > 100 µM (inactive) | > 100 µM | – | > 100 µM (inactive) | > 100 µM (inactive) | – |
| COC(CNC(=O)C(C)NC(=O)CCc1ccccc1)OC (stereo not given) | > 100 µM (inactive) | > 100 µM (inactive) | > 100 µM (inactive) | > 100 µM (inactive) | > 100 µM (inactive) | > 100 µM (inactive) | > 100 µM (inactive) | > 100 µM (inactive) | > 100 µM (inactive) | > 100 µM (inactive) | > 100 µM (inactive) | > 100 µM (inactive) | > 100 µM (inactive) | – | > 100 µM | > 100 µM (inactive) | > 100 µM (inactive) | > 100 µM (inactive) | – |
| O=S(=O)(/N=S(/Nc1ccccc1)C(Cl)Cl)c1ccccc1 (stereo not given) | > 100 µM (inactive) | > 100 µM (inactive) | > 100 µM (inactive) | > 100 µM (inactive) | > 100 µM (inactive) | > 100 µM (inactive) | > 100 µM (inactive) | > 100 µM (inactive) | > 100 µM (inactive) | > 100 µM (inactive) | > 100 µM (inactive) | > 100 µM (inactive) | – | > 100 µM (inactive) | > 100 µM | > 100 µM (inactive) | > 100 µM (inactive) | > 100 µM (inactive) | – |
| CC(=O)OCC1OC(n2cnc(C(N)=S)c2N)C(OC(C)=O)C1OC(C)=O (stereo not given) | > 100 µM (inactive) | > 100 µM (inactive) | – | > 100 µM (inactive) | > 100 µM (inactive) | > 100 µM (inactive) | > 100 µM (inactive) | > 100 µM (inactive) | > 100 µM (inactive) | > 100 µM (inactive) | > 100 µM (inactive) | > 100 µM (inactive) | > 100 µM (inactive) | > 100 µM (inactive) | > 100 µM | > 100 µM (inactive) | > 100 µM (inactive) | > 100 µM (inactive) | – |
| O=P(c1ccccc1)(c1ccccc1)C1CC=C2CCCCCC2C1 (stereo not given) | 25 µM (inactive) | 32.7 µM (inactive) | 37.9 µM (inactive) | 19.6 µM (inactive) | – | 29.9 µM (inactive) | – | > 10 µM (inactive) | – | 23.6 µM (inactive) | 36.9 µM (inactive) | – | 19.2 µM (inactive) | 23.8 µM (inactive) | 37.2 µM | > 10 µM (inactive) | 37.2 µM (inactive) | 16.1 µM (inactive) | 35.9 µM (inactive) |
